Source: PMC6934184, “Selective DNA-PKcs inhibition extends the therapeutic index of localized radiotherapy and chemotherapy” (The Journal of Clinical Investigation, 2019)

Target: T1, LATS2 (Homo sapiens, UniProt Q9NRM7)
T1 construct: purchased Thermo Fisher Scientific (Life Technologies) SelectScreen
Test: SelectScreen LanthaScreen
Assay type: binding
Conditions: 1 µM
In short: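 NU5455 was profiled across the SelectScreen Broad panel of kinase activity and binding assays. Z'LYTE reactions such as CSF1R ran at apparent Km ATP, while the Adapta CAMK1 assay used ATP listed as 10. Values are given as percent.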

T1 sequence (Q9NRM7 whole entry): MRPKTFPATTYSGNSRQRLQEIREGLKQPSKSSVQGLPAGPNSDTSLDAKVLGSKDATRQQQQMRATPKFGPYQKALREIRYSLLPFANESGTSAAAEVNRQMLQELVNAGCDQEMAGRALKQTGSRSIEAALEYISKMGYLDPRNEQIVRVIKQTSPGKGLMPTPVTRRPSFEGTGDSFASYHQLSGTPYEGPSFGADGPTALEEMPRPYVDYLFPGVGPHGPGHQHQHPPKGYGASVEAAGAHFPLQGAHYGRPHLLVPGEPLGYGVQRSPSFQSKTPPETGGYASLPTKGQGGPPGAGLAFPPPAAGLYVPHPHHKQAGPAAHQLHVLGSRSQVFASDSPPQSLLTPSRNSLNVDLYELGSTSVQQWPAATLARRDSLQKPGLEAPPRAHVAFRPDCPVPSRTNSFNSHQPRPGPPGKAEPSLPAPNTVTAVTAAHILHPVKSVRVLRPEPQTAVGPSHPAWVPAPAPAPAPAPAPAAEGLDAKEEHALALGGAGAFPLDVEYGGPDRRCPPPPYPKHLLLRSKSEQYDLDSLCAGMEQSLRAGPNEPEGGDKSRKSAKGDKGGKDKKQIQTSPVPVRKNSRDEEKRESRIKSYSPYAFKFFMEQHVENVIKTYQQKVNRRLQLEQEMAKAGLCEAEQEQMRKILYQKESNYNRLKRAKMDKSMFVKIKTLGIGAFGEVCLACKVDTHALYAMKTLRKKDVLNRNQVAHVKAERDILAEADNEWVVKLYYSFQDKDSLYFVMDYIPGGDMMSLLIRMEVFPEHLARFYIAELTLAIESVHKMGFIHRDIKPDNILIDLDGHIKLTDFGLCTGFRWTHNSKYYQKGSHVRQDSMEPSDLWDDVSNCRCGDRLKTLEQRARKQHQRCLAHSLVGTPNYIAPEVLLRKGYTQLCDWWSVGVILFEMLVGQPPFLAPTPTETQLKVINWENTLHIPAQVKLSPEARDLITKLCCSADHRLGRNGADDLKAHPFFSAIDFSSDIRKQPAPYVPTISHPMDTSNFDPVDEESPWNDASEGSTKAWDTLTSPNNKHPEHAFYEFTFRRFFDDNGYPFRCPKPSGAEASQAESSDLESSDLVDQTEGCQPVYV

SMILES: CN(C(=O)CN1CCOCC1)c1ccc2sc3c(-c4cccc5c(=O)cc(N6CC7CCC(C6)O7)oc45)cccc3c2c1 [NU5455]
- % displacement: 4.7%
